Experiments:
Type in all cases: cell-based
HTT mRNA = assay: Splicing assay (RT-qPCR) monitoring HTT splice variants, canonical (CJ) and alternative (AJ) junction; conditions: 50% response, A673 or K562 cell line, 24 hours; for IC50: decrease in CJ mRNA; for AC50: increase in AJ mRNA
Protocol: (§1) Compounds described herein were used to modulate RNA transcript abundance in cells. The expression of a target mRNA was measured by detecting the formation of an exon-exon junction in the canonical transcript (CJ). A compound mediated exon-inclusion event was detected by observing an increase in formation of a new junction with an alternative exon (AJ). Real-time qPCR assays were used to detect these splicing switches and interrogate the potency of various compounds towards different target genes. A high-throughput real time quantitative PCR (RT-qPCR) assay was developed to measure these two isoforms of the mRNA (CJ and AJ) for an exemplary gene, HTT, together with a control housekeeping gene, GAPDH or GUSB or PPIA, used for normalization. Briefly, the A673 or K562 cell line was treated with various compounds described herein (e.g., compounds of Formula (I)). After treatment, the levels of the HTT mRNA targets were determined from each sample of cell lysate by cDNA synthesis followed by qPCR.
• Cells-to-CT 1-step kit: ThermoFisher A25602, Cells-to-CT lysis reagent: ThermoFisher 4391851C, TaqMan™ Fast Virus 1-Step Master Mix: ThermoFisher 4444436 • GAPDH: VIC-PL, ThermoFisher 4326317E (Assay: Hs99999905_ml)—used for K562/suspension cell lines • GUSB: VIC-PL, ThermoFisher 4326320E (Assay: Hs99999908_ml)—used for K562/suspension cell lines • PPIA: VIC-PL, ThermoFisher 4326316E (Assay: Hs99999904_ml)—used for A673/adherent cell lines
(§2) The A673 cell line was cultured in DMEM with 10% FBS. Cells were diluted with full growth media and plated in a 96-well plate (15,000 cells in 100ul media per well). The plate was incubated at 37° C. with 5% CO2 for 24 hours to allow cells to adhere. An 11-point 3-fold serial dilution of the compounds was made in DMSO then diluted in media in an intermediate plate. Compounds were transferred from the intermediate plate to the cell plate with the top dose at a final concentration of 10 uM in the well. Final DMSO concentration was kept at or below 0.25%. The cell plate was returned to the incubator at 37° C. with 5% CO2 for an additional 24 hours.
(§3) The K562 cell line was cultured in IMDM with 10% FBS. For K562, cells were diluted with full growth media and plated in either a 96-well plate (50,000 cells in 50 uL media per well) or a 384-well plate (8,000-40,000 cells in 45 uL media per well). An 11-point 3-fold serial dilution of the compounds were made in DMSO then diluted in media in an intermediate plate. Compound was transferred from the intermediate plate to the cell plate with the top dose at a final concentration of 10 uM in the well. Final DMSO concentration was kept at or below 0.25%. Final volume was 100 uL for 96-well plate and 50 uL for 384-well plate. The cell plate was then placed in an incubator at 37° C. with 5% CO2 for 24 hours.
The cells were then gently washed with 50 uL-100 uL cold PBS before proceeding to addition of lysis buffer. 30 uL-50 uL of room temperature lysis buffer with DNAse I (and optionally RNAsin) was added to each well. Cells were shaken/mixed thoroughly at room temperature for 5-10 minutes for lysis to take place and then 3 uL-5 uL of room temperature stop solution was added and wells were shaken/mixed again. After 2-5 minutes, the cell lysate plate was transferred to ice for RT-qPCR reaction setup. The lysates could also be frozen at −80° C. for later use.
In some cases, a direct lysis buffer was used. An appropriate volume of 3X lysis buffer (10 mM Tris, 150 mM NaCl, 1.5%-2.5% Igepal and 0.1-1 U/uL RNAsin, pH 7.4) was directly added to either K562 or A673 cells in media and mixed by pipetting 3 times. The plates were then incubated at room temperature with shaking/rocking for 20-50 minutes to allow for lysis to take place. After this time, the cell lysate plate was transferred to ice to set up for the RT-qPCR reactions. The lysates could also be frozen at −80° C. for later use. […]

HTT CJ mRNA = assay: Gene panel canonical junction qPCR assay, HTT; conditions: Table 6, decrease in CJ mRNA, read-out: HTT IC50 (decrease in CJ mRNA levels)
Protocol: as §1, §2, §3
(§4) The data analysis was performed by first determining the ΔCt vs the housekeeper gene. This ΔCt was then normalized against the DMSO control (ΔΔCt) and converted to RQ (relative quantification) using the 2^(−ΔΔCt) equation. The RQ were then converted to a percentage response by arbitrarily setting an assay window of 3.5 ΔCt for HTT-CJ and an assay window of 9 ΔCt for HTT-AJ. […] The percentage response was then fitted to the 4 parametric logistic equation to evaluate the concentration dependence of compound treatment. The increase in AJ mRNA is reported as AC50 (compound concentration having 50% response in AJ increase) while the decrease in CJ mRNA levels is reported as IC50 (compound concentration having 50% response in CJ decrease).
(§5) Additional studies were carried out for a larger panel of genes using the protocol provided above. The junction between flanking upstream and downstream exons was used to design canonical junction qPCR assays. At least one of the forward primer, reverse primer or the CY5-labeled 5′ nuclease probe (with 3′ quencher such as ZEN/Iowa Black FQ) was designed to overlap with the exon junction to capture the CJ mRNA transcript. BLAST was used to confirm the specificity of the probeset and parameters such as melting temperature, GC content, amplicon size, and primer dimer formation are considered during their design. Data for the decrease in CJ mRNA levels for three exemplary genes (HTT, SMN2, and Target C) analyzed in this panel are reported as IC50 (compound concentration having […] in CJ decrease).

SMN2 CJ mRNA = assay: Gene panel canonical junction qPCR assay, SMN2; conditions: Table 6, decrease in CJ mRNA, read-out: SMN2 IC50 (decrease in CJ mRNA levels)
Protocol: as §1, §2, §3, §4, §5

Target C CJ mRNA = assay: Gene panel canonical junction qPCR assay, Target C; conditions: Table 6, decrease in CJ mRNA, read-out: Target C IC50 (decrease in CJ mRNA levels)
Protocol: as §1, §2, §3, §4, §5

Row | Compound | IC50 (HTT mRNA) [nM] | AC50 (HTT mRNA) [nM] | IC50 (HTT CJ mRNA) [nM] | IC50 (SMN2 CJ mRNA) [nM] | IC50 (Target C CJ mRNA) [nM]
1 | Cc1nc2c(F)cc(-c3nc4sc(C5CCNCC5)cc4s3)cc2o1 [Compound 132, 4-fluoro-2-methyl-6-[5-(piperidin-4-yl)thieno[2,3-d][1,3]thiazol-2-yl]-1,3-benzoxazole] | < 100 | < 100 | < 100 | < 100 | 100 to 1000
2 | Cn1cc2cc(-c3cc4cn(C5CCNCC5)nc4s3)c(C#N)cc2n1 [Compound 211] | 1000 to 10000 | 1000 to 10000 | 1000 to 10000 | 100 to 1000 | 1000 to 10000
3 | CN(c1cc2sc(-c3ccc(-c4cn[nH]c4)cc3O)nc2s1)[C@@H]1C[C@H]2CC[C@@H](C1)N2 [Compound 191, 2-{5-[(1R,3R,5S)-8-azabicyclo[3.2.1]octan-3-yl(methyl)amino]thieno[2,3-d][1,3]-thiazol-2-yl}-5-(1H-pyrazol-4-yl)phenol] | > 10000 | > 10000 | > 10000 | > 10000 | > 10000
4 | Cn1cc2cc(-c3nc4sc(C5CCNCC5)cc4s3)cc(F)c2n1 [Compound 106, 7-fluoro-2-methyl-5-[5-(piperidin-4-yl)thieno[2,3-d][1,3]thiazol-2-yl]indazole] | < 100 | < 100 | < 100 | < 100 | < 100
5 | Cc1cn2nc(-n3cc4cc(C5CCNCC5)sc4n3)nc2c(C)n1 [Compound 163, 4-(2-{6,8-dimethyl-[1,2,4]triazolo [1,5-a]pyrazin-2-yl}thieno[2,3-c]pyrazol-5-yl)piperidine] | 1000 to 10000 | 1000 to 10000 | 1000 to 10000 | 1000 to 10000 | 1000 to 10000
6 | Cc1cn2nc(-c3nc4sc(C5=CCOCC5)cc4s3)cc(C)c2n1 [Compound 195, 6-[5-(3,6-dihydro-2H-pyran-4-yl)thieno[2,3-d][1,3]thiazol-2-yl]-2,8-dimethylimidazo[1,2-b]pyridazine] | 100 to 1000 | 100 to 1000 | 100 to 1000 | 100 to 1000 | 100 to 1000
7 | Cn1cc2cc(-c3nc4sc(N5CCC56CCCNC6)cc4s3)cc(F)c2n1 (stereo not drawn) [Compound 202, 1-[2-(7-fluoro-2-methylindazol-5-yl)thieno[2,3-d][1,3]thiazol-5-yl]-1,6-diazaspiro[3.5]nonane] | > 10000 | > 10000 | > 10000 | 1000 to 10000 | 1000 to 10000
8 | CC1CN(c2cc3sc(-c4cc(F)c5nn(C)cc5c4)nc3s2)CCN1 (stereo not drawn) [Compound 135, 7-fluoro-2-methyl-5-[5-(3-methylpiperazin-1-yl)thieno[2,3-d][1,3]thiazol-2-yl]indazole] | 100 to 1000 | 100 to 1000 | 100 to 1000 | < 100 | 100 to 1000
9 | Cc1cn2cc(-n3cc4sc(C5CCNCC5)cc4n3)nc2c(C)n1 [Compound 181] | 1000 to 10000 | 1000 to 10000 | 1000 to 10000 | 1000 to 10000 | > 10000
10 | Cc1cn2nc(-c3cc4cn([C@H]5CCNC[C@@H]5F)nc4s3)cc(C)c2n1 (mixture of isomers) [Compound 212, 5-(2,8-dimethylimidazo[1,2-b]pyridazin-6-yl)-2-((1:1 mixture of 3S,4S and 3R,4R)-3-fluoropiperidin-4-yl)-2H-thieno[2,3-c]pyrazole] | 1000 to 10000 | 1000 to 10000 | 1000 to 10000 | 100 to 1000 | > 10000
11 | CN(C)C1CCN(c2cc3sc(-c4cc(F)c5nn(C)cc5c4)nc3s2)CC1 [Compound 154, 1-[2-(7-fluoro-2-methylindazol-5-yl)thieno[2,3-d][1,3]thiazol-5-yl]-N,N-dimethylpiperidin-4-amine] | 100 to 1000 | 100 to 1000 | 100 to 1000 | < 100 | 100 to 1000
12 | Cc1cn2nc(-n3cc4sc(N5CCC(NC(C)(C)C)C5)cc4n3)cc(C)c2n1 (stereo not drawn) [Compound 189, N-tert-butyl-1-(2-{2,8-dimethylimidazo[1,2-b]pyridazin-6-yl}thieno[3,2-c]pyrazol-5-yl) pyrrolidin-3-amine] | > 10000 | > 10000 | > 10000 | 1000 to 10000 | > 10000
13 | COc1c(-c2nc3sc(C4CCNCC4)cc3s2)cc(F)c2nn(C)cc12 [Compound 237, 7-fluoro-4-methoxy-2-methyl-5-[5-(piperidin-4-yl)thieno[2,3-d][1,3]thiazol-2-yl]indazole] | > 10000 | > 10000 | > 10000 | > 10000 | > 10000
14 | Cc1cn2nc(-c3cc4cn(C5CCNCC5)nc4s3)cc(C)c2n1 [Compound 162, 4-(5-{2,8-dimethylimidazo[1,2-b]pyridazin-6-yl}thieno[2,3-c]pyrazol-2-yl)piperidine] | < 100 | < 100 | < 100 | < 100 | 100 to 1000
15 | Cn1cc2cc(-n3cc4cc(C5CCNCC5)sc4n3)cc(F)c2n1 [Compound 104, 7-fluoro-2-methyl-5-[5-(piperidin-4-yl)thieno[2,3-c]pyrazol-2-yl] indazole] | < 100 | 100 to 1000 | < 100 | < 100 | 100 to 1000
16 | COc1cc2nn(C)cc2cc1-c1cc2cn(C3CCNCC3)nc2s1 [Compound 208] | 100 to 1000 | 100 to 1000 | 100 to 1000 | < 100 | 100 to 1000
17 | Cc1cn2cc(-n3cc4cc(C5CCNCC5)sc4n3)cc(C)c2n1 [Compound 155] | 100 to 1000 | 100 to 1000 | 100 to 1000 | < 100 | 1000 to 10000
18 | Cc1cn2cc(-n3cc4sc(C5CCNCC5)cc4n3)cc(F)c2n1 [Compound 166, 4-(2-{8-fluoro-2-methylimidazo[1,2-a]pyridin-6-yl}thieno[3,2-c]pyrazol-5-yl)piperidine] | 100 to 1000 | 100 to 1000 | 100 to 1000 | 100 to 1000 | 1000 to 10000

— patent US20240239811A1, “5-(5-(PIPERIDIN-4-YL)THIENO[3,2-C]PYRAZOL-2-YL]INDAZOLE DERIVATIVES AND RELATED COMPOUNDS AS MODULATORS FOR SPLICING NUCLEIC ACIDS AND FOR THE T” (REMIX THERAPEUTICS INC., priority 2020, published 2024)
